Data reported in ChEMBL document CHEMBL3638822, “Pyrazolopyrimidine compounds and their use as PDE10 inhibitors” (2015).

Target: T1, Phosphodiesterase (Bos taurus, UniProt F1MPW5)
T1 sequence (F1MPW5 whole entry): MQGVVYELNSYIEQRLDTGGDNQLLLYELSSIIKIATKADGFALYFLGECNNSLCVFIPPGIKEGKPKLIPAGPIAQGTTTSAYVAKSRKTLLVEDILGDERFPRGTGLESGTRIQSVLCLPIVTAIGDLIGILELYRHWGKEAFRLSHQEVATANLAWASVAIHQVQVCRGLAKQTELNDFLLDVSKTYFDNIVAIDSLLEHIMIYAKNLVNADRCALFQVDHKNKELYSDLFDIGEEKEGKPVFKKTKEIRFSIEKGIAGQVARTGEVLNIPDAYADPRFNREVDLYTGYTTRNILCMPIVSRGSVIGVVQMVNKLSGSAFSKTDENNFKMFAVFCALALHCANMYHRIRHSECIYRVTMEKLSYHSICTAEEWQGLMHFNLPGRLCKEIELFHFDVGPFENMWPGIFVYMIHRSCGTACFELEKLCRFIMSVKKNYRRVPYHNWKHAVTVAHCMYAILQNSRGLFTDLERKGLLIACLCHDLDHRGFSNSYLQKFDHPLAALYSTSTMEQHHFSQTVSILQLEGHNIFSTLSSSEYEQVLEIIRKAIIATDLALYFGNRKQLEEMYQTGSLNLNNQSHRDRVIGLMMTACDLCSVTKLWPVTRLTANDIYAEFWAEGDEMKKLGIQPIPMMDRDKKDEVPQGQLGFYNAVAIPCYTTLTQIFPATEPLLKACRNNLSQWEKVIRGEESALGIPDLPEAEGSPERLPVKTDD
Assay: Inhibition Assay: The PDE assay was performed according to a modified method referred to a report of Kotera et al. (Kotera et al., Biochem. Pharmacol., vol. 60, pp. 1333-1341, 2000), by the radiolabeled nucleotide method.Specifically, the measurements of the inhibitory activities were carried out in the following method.(Method) The test compounds were dissolved in dimethyl sulfoxide (DMSO). 2 uL of the compound solution was added to 96 well plate, and the reaction mixture (20 uL of PDE enzyme solution in 50 mM Tris-HCl, pH 8.0, 40 uL of the assay buffer (50 mM Tris-HCl, pH 8.0, 2 mM MgCl2, 0.07% 2-mercaptoethanol, and 0.825 mg/mL bovine serum albumin), and 20 uL of 1 mg/mL snake venom in 50 mM Tris-HCl, pH8.0) was added to the 96 well plate. The enzyme reaction was started by adding and mixing with substrate solution of 20 L containing approximate 35 nM 3H-cAMP in 50 mM Tris-HCl, pH 8.0. The final concentration of cAMP in the reaction mixtures was 7 nM.

Structure (SMILES) | IC50 [nM]
Cc1nc2c(nc1-c1cc3nc(N4CCCC4)cc(NC4CCC(F)(F)CC4)n3n1)CCCC2 | 0.23
Cc1nc2ccc(F)cc2nc1-c1cc2nc(N3CCCC3)cc(N[C@H]3CCCC[C@@H]3O)n2n1 | 0.035
Cc1nc2ccccc2nc1-c1cc2nc(N3CC[C@@H](F)C3)cc(NC3CCOCC3)n2n1 | 0.83
Cc1ccc2nc(C)c(-c3cc4nc(N5CCC[C@H]5CO)cc(N(C5CCOCC5)C5CC5)n4n3)nc2c1 | 0.0068
CC(=O)N1CCC(Nc2cc(N3CCCC3)nc3cc(-c4nc5cc(C)ccc5nc4C)nn23)CC1 | 0.044
Cc1ccc2nc(C)c(-c3cc4nc(N5CCCC5)cc(N[C@@H]5CCS(=O)(=O)C5)n4n3)nc2c1 | 0.0085
CO[C@H]1CC[C@H](Nc2cc(N3CCCC3)nc3cc(-c4nc5cc(C(F)(F)F)ccc5nc4C)nn23)CC1 | 0.045
Cc1nc(C)c(-c2cc3nc(N4CCCC4)cc(N(C)C4CCOCC4)n3n2)nc1C | 0.48
Cc1nc2ccccc2nc1-c1cc2nc(N3CCCC3)cc(N(C)C3CCOCC3)n2n1 | 0.0045
Cc1ccc2nc(-c3cc4nc(N5CCCC5)cc(NC5CCOCC5)n4n3)c(C)nc2c1 | 0.46
C[C@]1(O)CC[C@H](Nc2cc(N3CC[C@@H](F)C3)nc3cc(-c4nc5ccccc5nc4C(F)(F)F)nn23)CC1 | 0.18
Cc1nc2c(C)cccc2nc1-c1cc2nc(N3CCCC3)cc(NC3CCOCC3)n2n1 | 0.78
Cc1nc2ccc(F)cc2nc1-c1cc2nc(N3CC[C@@H](F)C3)cc(N[C@H]3CC[C@](C)(O)CC3)n2n1 | 0.09
Cc1nc2ccccc2nc1-c1cc2nc(C3=CCCC3)cc(NC3CCOCC3)n2n1 | 0.22
Cc1nc2ccccc2nc1-c1cc2nc(N3CC=CC3)cc(NC3CCOCC3)n2n1 | 0.2
Cc1ccc2nc(C)c(-c3cc4nc(N5CC(O)C5)cc(NC5CCOCC5)n4n3)nc2c1 | 1.08
Cc1nc2ccccc2nc1-c1cc2nc(N3CCCC3)cc(OC3CCOCC3)n2n1 | 0.38
Cc1ccc2nc(C)c(-c3cc4nc(N5CCCC5)cc(NCCN(C)C)n4n3)nc2c1 | 0.17
CCCN1CCC(Nc2cc(N3CCCC3)nc3cc(-c4nc5cc(C)ccc5nc4C)nn23)CC1 | 0.15
Cc1nc2ccccc2nc1-c1cc2nc(N3CCCC3)cc(NCCC#N)n2n1 | 0.052
Cc1nc2ccccc2nc1-c1cc2nc(N3CCCC3)cc(NC[C@H](O)C(F)(F)F)n2n1 | 0.13
Cc1nc2ccccc2nc1-c1cc2nc(N3CC[C@@H](F)C3)cc(NC3COC3)n2n1 | 0.65
Cc1nc2ccccc2nc1-c1cc2nc(N3CCCC3)cc(CC3CCOCC3)n2n1 | 0.36
Cc1nc2ccccc2nc1-c1cc2nc(N3CC[C@@H](F)C3)cc(NCC(C)(C)O)n2n1 | 0.32
Cc1nc2ccccc2nc1-c1cc2nc(N3CCCC3)cc(N3CCCC3)n2n1 | 0.57
Cc1nc2ccccc2nc1-c1cc2nc(N3CCCC3)cc(NC3CCOCC3)n2n1 | 0.11
CCc1nc2ccccc2nc1-c1cc2nc(N3CC[C@@H](F)C3)cc(N[C@H]3CC[C@H](OC)CC3)n2n1 | 0.39
Cc1nc2ccccc2nc1-c1cc2nc(N3CCC[C@H]3CO)cc(N[C@@H]3CCCOC3)n2n1 | 0.39
Cc1nc2ccc(F)cc2nc1-c1cc2nc(N3CC[C@@H](F)C3)cc(NCC(C)(C)O)n2n1 | 0.09
Cc1nc2ccccc2nc1-c1cc2nc(N3CC[C@@H](F)C3)cc(NC3CC3)n2n1 | 0.87
